How the values were obtained:
[1] = Phase 1 single ascending dose (Part A) pharmacokinetics of 20 mg tablet formulation 3; details: human, in vivo, oral, single 60 mg, geometric mean
Experimental: (§1) This was a 2-part, Phase 1 double blind, placebo controlled trial to assess the safety, tolerability, pharmacokinetics, and pharmacodynamics (including the KSS, the KDT, the SQSQ and 24-hour EEG recordings), of single, ascending (Part A: 20, 40, and 60 mg) and multiple, ascending (Part B: 20 and 40 mg for 8 days) doses of the 20 mg tablet (formulation 3) in healthy participants. […] Variability in Cmax and AUC increased with increasing dose following a single oral dose of the 20 mg tablet formulation (formulation 3) (FIG. 16).

[2] = test system: adult patients with essential tremor; experiment: Example 16: Patient Global Impression of Change (PGI-C); assay type: in vivo, human; details: for participants with PGI-C score minimally improved: Part A; for participants with PGI-C much improved / participants with PGI-C score reflecting no change in symptoms: Part B OLT
From the text: Patients were scheduled for Safety Follow-up on Day 70 (±1 day) in the clinic for the final clinical trial assessment.

[3] = Within-participant escalating dose trial Part A: safety and tolerability; assay type: in vivo, human; details: N = 8
Experimental: In Part A, an open label trial was conducted.

[4] = clinical; details: both, human, plasma, oral, 120 mg
Experimental: Each participant completed 3 study periods: Screening, Treatment period (12 or 31 days), and Safety follow-up.
Participants were healthy males and females between the ages of 18 and 55 years old.
In Part B, a randomized controlled trial was conducted.

[5] = Phase 1 SAD/MAD safety and tolerability of formulation 3; assay type: in vivo, human; details: single 60 mg without titration, 6 healthy volunteers
Experimental: as §1
Adverse events for the doses of 20 and 40 mg were transient and occurred at a rate similar to placebo. The following TEAEs were observed, all of which were mild to moderate: […]

[6] = test system: sigma band EEG power during NREM sleep; experiment: EEG/PSG: sigma band EEG power during NREM sleep; assay type: in vivo, human; details: 20 mg tablet and 40 mg tablet (FIG. 12)
[7] = Part B RWD (RWAS), Day 56, n 6, change from randomization baseline

CC(C)(C)NC(=O)CN1CCC(CNC(=O)c2cc(F)cc(Cl)c2)CC1 [compound of formula (I), N-((1-(2-(tert-butylamino)-2-oxoethyl)piperidin-4-yl)methyl)-3-chloro-5-fluorobenzamide]
Cmax ([1]; N = 6): ~130 ng/mL | AUC ([1]; read-out: AUC24): ~1910 ng·h/mL | PGI-C Score 1 very much improved ([2]; Part A (FAS), Day 7, n 6): 0 n (%) | PGI-C Score 2 Much improved ([2]; Part A (FAS), Day 7, n 6): 1 n (%) | PGI-C Score 3 minimally improved ([2]; Part A (FAS), Day 7, n 6): 2 (33.3) n (%) | PGI-C Score 4 no change ([2]; Part A (FAS), Day 7, n 6): 2 (33.3) n (%) | PGI-C Score 5 minimally worse ([2]; Part A (FAS), Day 7, n 6): 0 n (%) | PGI-C Score 6 much worse ([2]; Part A (FAS), Day 7, n 6): 1 (16.7) n (%) | PGI-C Score 7 very much worse ([2]; Part A (FAS), Day 7, n 6): 0 n (%) | PGI-C Score 1 very much improved ([2]; Part A (FAS), Day 14, n 6): 0 n (%) | PGI-C Score 2 Much improved ([2]; Part A (FAS), Day 14, n 6): 1 n (%) | PGI-C Score 3 minimally improved ([2]; Part A (FAS), Day 14, n 6): 5 (83.3) n (%) | PGI-C Score 4 no change ([2]; Part A (FAS), Day 14, n 6): 0 n (%) | PGI-C Score 5 minimally worse ([2]; Part A (FAS), Day 14, n 6): 0 n (%) | PGI-C Score 6 much worse ([2]; Part A (FAS), Day 14, n 6): 0 n (%) | PGI-C Score 7 very much worse ([2]; Part A (FAS), Day 14, n 6): 0 n (%) | participants with PGI-C score minimally improved ([2]; Day 7): 33.3% | participants with PGI-C score minimally improved ([2]; Day 14): 83.3% | PGI-C Score 1 very much improved ([2]; Part B OLT (FAS), Day 7, n 13): 0 n (%) | PGI-C Score 2 Much improved ([2]; Part B OLT (FAS), Day 7, n 13): 1 n (%) | PGI-C Score 3 minimally improved ([2]; Part B OLT (FAS), Day 7, n 13): 5 (38.5) n (%) | PGI-C Score 4 no change ([2]; Part B OLT (FAS), Day 7, n 13): 7 (53.8) n (%) | PGI-C Score 5 minimally worse ([2]; Part B OLT (FAS), Day 7, n 13): 0 n (%) | PGI-C Score 6 much worse ([2]; Part B OLT (FAS), Day 7, n 13): 0 n (%) | PGI-C Score 7 very much worse ([2]; Part B OLT (FAS), Day 7, n 13): 0 n (%) | PGI-C Score 1 very much improved ([2]; Part B OLT (FAS), Day 21, n 12): 0 n (%) | PGI-C Score 2 Much improved ([2]; Part B OLT (FAS), Day 21, n 12): 1 n (%) | PGI-C Score 3 minimally improved ([2]; Part B OLT (FAS), Day 21, n 12): 5 (41.7) n (%) | PGI-C Score 4 no change ([2]; Part B OLT (FAS), Day 21, n 12): 6 (50.0) n (%) | PGI-C Score 5 minimally worse ([2]; Part B OLT (FAS), Day 21, n 12): 0 n (%) | PGI-C Score 6 much worse ([2]; Part B OLT (FAS), Day 21, n 12): 0 n (%) | PGI-C Score 7 very much worse ([2]; Part B OLT (FAS), Day 21, n 12): 0 n (%) | PGI-C Score 1 very much improved ([2]; Part B OLT (FAS), Day 42, n 11): 0 n (%) | PGI-C Score 2 Much improved ([2]; Part B OLT (FAS), Day 42, n 11): 3 n (%) | PGI-C Score 3 minimally improved ([2]; Part B OLT (FAS), Day 42, n 11): 4 (36.4) n (%) | PGI-C Score 4 no change ([2]; Part B OLT (FAS), Day 42, n 11): 4 (36.4) n (%) | PGI-C Score 5 minimally worse ([2]; Part B OLT (FAS), Day 42, n 11): 0 n (%) | PGI-C Score 6 much worse ([2]; Part B OLT (FAS), Day 42, n 11): 0 n (%) | PGI-C Score 7 very much worse ([2]; Part B OLT (FAS), Day 42, n 11): 0 n (%) | participants with PGI-C much improved ([2]; Day 7): 7.7% | participants with PGI-C score reflecting no change in symptoms ([2]; Day 7): 53.8% | participants with PGI-C much improved ([2]; Day 42): 27.3% | participants with PGI-C score reflecting no change in symptoms ([2]; Day 42): 36.4% | PGI-C Score 1 very much improved [2, 7]: 0 n (%) | PGI-C Score 2 Much improved [2, 7]: 0 n (%) | PGI-C Score 3 minimally improved [2, 7]: 2 (33.3) n (%) | PGI-C Score 4 no change [2, 7]: 3 (50.0) n (%) | PGI-C Score 5 minimally worse [2, 7]: 0 n (%) | PGI-C Score 6 much worse [2, 7]: 0 n (%) | PGI-C Score 7 very much worse [2, 7]: 1 (16.7) n (%) | Dry eye ([3]; 5 mg): 1 (12.5%) n (%) | Eye disorders ([3]; 5 mg): 2 (25.0%) n (%) | General Disorders and Administration Site Conditions ([3]; 5 mg): 3 (37.5%) n (%) | Headache ([3]; 5 mg): 2 (25.0%) n (%) | Lethargy ([3]; 5 mg): 1 (12.5%) n (%) | Medical device site dermatitis ([3]; 5 mg): 1 (12.5%) n (%) | Nervous System Disorders ([3]; 5 mg): 2 (25.0%) n (%) | Participants with at least one TEAE ([3]; 5 mg): 5 (62.5%) n (%) | Vessel puncture site thrombosis ([3]; 5 mg): 1 (12.5%) n (%) | Dry eye ([3]; 10 mg): 2 (25.0%) n (%) | Eye disorders ([3]; 10 mg): 2 (25.0%) n (%) | General Disorders and Administration Site Conditions ([3]; 10 mg): 3 (37.5%) n (%) | Headache ([3]; 10 mg): 0 n (%) | Lethargy ([3]; 10 mg): 0 n (%) | Medical device site dermatitis ([3]; 10 mg): 2 (25.0%) n (%) | Nervous System Disorders ([3]; 10 mg): 0 n (%) | Participants with at least one TEAE ([3]; 10 mg): 5 (62.5%) n (%) | Vessel puncture site thrombosis ([3]; 10 mg): 1 (12.5%) n (%) | Dry eye ([3]; 20 mg): 0 n (%) | Eye disorders ([3]; 20 mg): 0 n (%) | General Disorders and Administration Site Conditions ([3]; 20 mg): 1 (12.5%) n (%) | Headache ([3]; 20 mg): 1 (12.5%) n (%) | Medical device site dermatitis ([3]; 20 mg): 0 n (%) | Nervous System Disorders ([3]; 20 mg): 1 (12.5%) n (%) | Participants with at least one TEAE ([3]; 20 mg): 3 (37.5%) n (%) | Vessel puncture site thrombosis ([3]; 20 mg): 0 n (%) | Dry eye ([3]; Overall 5-20 mg): 3 (37.5%) n (%) | Eye disorders ([3]; Overall 5-20 mg): 3 (37.5%) n (%) | Headache ([3]; Overall 5-20 mg): 3 (37.5%) n (%) | Lethargy ([3]; Overall 5-20 mg): 2 (25.0%) n (%) | Medical device site dermatitis ([3]; Overall 5-20 mg): 3 (37.5%) n (%) | Nervous System Disorders ([3]; Overall 5-20 mg): 3 (37.5%) n (%) | Participants with at least one TEAE ([3]; Overall 5-20 mg): 7 (87.5%) n (%) | Vessel puncture site thrombosis ([3]; Overall 5-20 mg): 2 (25.0%) n (%) | AUC [4]: ≥ 4650 ng·h/mL | Cmax [4]: ≥ 390 ng/mL | tolerability [5]: not tolerated

CC(C)(C)NC(=O)CN1CCC(CNC(=O)c2cc(F)cc(Cl)c2)CC1.Cl [compound of formula (II), N-((1-(2-(tert-butylamino)-2-oxoethyl)piperidin-4-yl)methyl)-3-chloro-5-fluorobenzamide hydrochloride]
NREM sigma band compared to placebo control [6]: decrease

— patent US20250295646A1, “METHODS OF USE OF T-TYPE CALCIUM CHANNEL MODULATORS” (Praxis Precision Medicines, Inc., priority 2022, published 2025)
